Measured values from US8575197B2, “Pyrolinone derivative and pharmaceutical composition comprising the same” (Shionogi & Co., Ltd., priority 2008, dated 2013).

target: human P2X3 receptor (Homo sapiens (Human), UniProt P56373); assay: P2X3 receptor inhibition, ATP-evoked Fluo-3 calcium fluorescence (FDSS 3000); format: cell-based; conditions: C6BU-1 cell transfected with human P2X3 receptor gene; ATP-evoked Fluo-3 fluorescence
Outline: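 C6BU-1 cells stably transfected with human P2X3, loaded with 4 μM Fluo-3-AM for 1 h at 37 °C in HEPES buffer pH 7.5 with probenecid. Compound added 5 min before 40 nM ATP solution; fluorescence followed 3 min. IC50 from ratio of peak post-ATP to baseline fluorescence.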

Sequence of human P2X3 receptor (P56373 whole entry): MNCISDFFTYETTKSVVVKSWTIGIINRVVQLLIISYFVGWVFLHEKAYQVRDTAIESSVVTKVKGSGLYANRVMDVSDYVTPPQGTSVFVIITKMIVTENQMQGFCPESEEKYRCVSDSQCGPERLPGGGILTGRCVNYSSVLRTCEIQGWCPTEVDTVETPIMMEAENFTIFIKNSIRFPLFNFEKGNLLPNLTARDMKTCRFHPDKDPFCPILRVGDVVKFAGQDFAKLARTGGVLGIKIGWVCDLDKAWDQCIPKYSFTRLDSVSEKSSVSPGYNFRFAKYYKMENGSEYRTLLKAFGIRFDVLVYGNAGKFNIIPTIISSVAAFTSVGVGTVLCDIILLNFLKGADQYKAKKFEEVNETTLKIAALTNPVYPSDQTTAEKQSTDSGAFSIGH

Row | SMILES | IC50
1 | Cc1cc(-c2ccc(N3C(=O)C(O)=C(C(=O)C(C)C)C3c3ccccc3OC(F)(F)F)cc2)cs1 (centres unmarked) [Compound I-322] | 102 nM
2 | COc1ccccc1C1C(C(=O)C(C)C)=C(O)C(=O)N1c1ccc(-c2cc(C)on2)cc1 (centres unmarked) [Compound I-457] | 488 nM
3 | CCOc1ncccc1C1C(C(=O)C(C)C)=C(O)C(=O)N1c1ccc(-c2ccsc2)cc1 (centres unmarked) [Compound I-441] | 13 nM
4 | COc1ccc(C(=O)C2=C(O)C(=O)N(c3ccc(-c4nccs4)cc3)C2c2ccccc2OC)cc1 (centres unmarked) [Compound I-029] | 160 nM
5 | CC(C)(C)C(=O)C1=C(O)C(=O)N(c2ccc(-c3ccon3)cc2)C1c1ccccc1OCC(=O)O (centres unmarked) [Compound I-134] | 776 nM
6 | CC(C)(C)C(=O)C1=C(O)C(=O)N(c2ccc(-c3ccon3)cc2)C1c1cccc[n+]1[O-] (centres unmarked) [Compound I-005] | 247 nM
7 | COCc1ccccc1C1C(C(=O)CC(C)C)=C(O)C(=O)N1c1ccc(-c2ccc(C)o2)cc1 (centres unmarked) [Compound I-380] | 7 nM
8 | CC(C)c1n[nH]c2c1C(c1cccnc1OCC(=O)O)N(c1ccc(-c3ccsc3)cc1)C2=O (centres unmarked) [II-052] | 33 nM
9 | COC(=O)COc1ccccc1C1C(C(=O)C(C)(C)C)=C(O)C(=O)N1c1ccc(-c2ccsc2)cc1 (centres unmarked) [Compound I-114] | 12 nM
10 | Cc1ccc(-c2ccc(N3C(=O)C(O)=C(C(=O)C(C)C)C3c3cccnc3OCCCO)cc2)o1 (centres unmarked) [Compound I-478] | 34 nM
11 | COCCOc1ncccc1C1c2c(C(C)C)n[nH]c2C(=O)N1c1ccc(-c2ccon2)cc1 (centres unmarked) [II-279] | 378 nM
12 | COc1ccccc1C1c2c(C(C)(C)C)n[nH]c2C(=O)N1c1ccc(-c2ccoc2)cn1 (centres unmarked) [II-247] | 33 nM
13 | CCOc1ncccc1C1C(C(=O)CC(C)C)=C(O)C(=O)N1c1ccc(-c2ccsc2)cc1 (centres unmarked) [Compound I-440] | 35 nM
14 | COCc1ccccc1[C@@H]1C(C(=O)C(C)C)=C(O)C(=O)N1c1ccc(-c2csc(C)c2)cc1 [Compound I-455] | 14 nM
15 | Cc1nc(-c2ccc(N3C(=O)C(O)=C(S(=O)(=O)c4ccccc4)C3C3CCCCC3)cc2)no1 (centres unmarked) [Compound I-499] | 398 nM
16 | COc1ccccc1C1c2c(C(C)(C)CO)n[nH]c2C(=O)N1c1ccc(-c2ccoc2)cn1 (centres unmarked) [II-250] | 43 nM
17 | COc1ccccc1C1C(C(=O)C(C)C)=C(O)C(=O)N1c1ccc(-c2csc(C)c2)cc1 (centres unmarked) [Compound I-257] | 37 nM
18 | CC(C)(C)c1n[nH]c2c1C(c1ccccc1OCCO)N(c1ccc(-c3ccco3)cc1)C2=O (centres unmarked) [II-105] | 13 nM
19 | CCOC(=O)c1ccc(N2C(=O)c3[nH]nc(C(C)(C)C)c3C2c2ccccc2OC)cc1 (centres unmarked) [II-057] | 17 nM
20 | COCc1ccccc1C1c2c(C(C)(C)C)n[nH]c2C(=O)N1c1ccc(-c2noc(C)n2)cc1 (centres unmarked) [II-069] | 414 nM
21 | CC(C)CC(=O)C1=C(O)C(=O)N(c2ccc(-c3ccon3)cc2)C1c1ccccc1OC(F)F (centres unmarked) [Compound I-307] | 158 nM
22 | CC(C)(C)c1n[nH]c2c1C(c1ccccc1OC(F)(F)F)N(c1ccc(-c3ccon3)cc1)C2=O (centres unmarked) [II-061] | 166 nM
23 | CC(C)(C)C(=O)C1=C(O)C(=O)N(c2ccc(-c3ccsc3)cc2)C1c1cccnc1OCCO (centres unmarked) [Compound I-166] | 19 nM
24 | CC(C)(C)C(=O)C1=C(O)C(=O)N(c2ccc(-c3ccon3)cc2)C1c1ccccc1OC(F)F (centres unmarked) [Compound I-064] | 137 nM
25 | COCCCOc1ccccc1C1C(C(=O)CC(C)C)=C(O)C(=O)N1c1ccc(-c2ccsc2)cc1 (centres unmarked) [Compound I-490] | 17 nM
26 | CC(C)C(=O)C1=C(O)C(=O)N(c2ccc(-c3ccsc3)cc2)C1c1cccnc1OCC(N)=O (centres unmarked) [Compound I-200] | 14 nM
27 | COc1ccccc1C1C(C(=O)CC(C)C)=C(O)C(=O)N1c1ccc(-c2cc(C)no2)cc1 (centres unmarked) [Compound I-339] | 892 nM

Row | SMILES | IC50
28 | COc1cccc(C2C(C(=O)C(C)C)=C(O)C(=O)N2c2ccc(-c3ccsc3)cc2)c1 (centres unmarked) [Compound I-284] | 300 nM
29 | CCN(C)C(=O)c1ccccc1C1C(C(=O)C(C)C)=C(O)C(=O)N1c1ccc(-c2ccc(C)o2)cc1 (centres unmarked) [Compound I-495] | 59 nM
30 | Cc1ccc(-c2ccc(N3C(=O)C(O)=C(C(=O)C(C)C)C3c3ccccc3CCC(N)=O)cc2)o1 (centres unmarked) [Compound I-536] | 32 nM
31 | Cc1cc(-c2ccc(N3C(=O)C(O)=C(C(=O)CC(C)C)C3c3ccccc3OCCO)cc2)on1 (centres unmarked) [Compound I-345] | 999 nM
32 | CC(C)(C)c1n[nH]c2c1C(c1ccccc1OCC(=O)O)N(c1ccc(-c3ccsc3)cc1)C2=O (centres unmarked) [II-023] | 4 nM
33 | Cc1cc(-c2ccc(N3C(=O)C(O)=C(C(=O)C(C)C)C3c3cccnc3OCCCO)cc2)cs1 (centres unmarked) [Compound I-570] | 70 nM
34 | COc1ccccc1C1c2c(-c3ccco3)n[nH]c2C(=O)N1c1ccc(-c2ccsc2)cc1 (centres unmarked) [II-178] | 149 nM
35 | CC(C)CC(=O)C1=C(O)C(=O)N(c2ccc(-c3ccsc3)cc2)C1c1ccccc1OC(C)C (centres unmarked) [Compound I-293] | 12 nM
36 | C[S+]([O-])CCOc1ccccc1C1c2c(C(C)(C)C)n[nH]c2C(=O)N1c1ccc(-c2ccon2)cc1 (centres unmarked) [II-168] | 101 nM
37 | COc1ccc(C(=O)C2=C(O)C(=O)N(c3ccc(-c4noc(C)n4)cc3)C2c2ccccc2OC)cc1 (centres unmarked) [Compound I-030] | 53 nM
38 | CC(C)(C)C(=O)C1=C(O)C(=O)N(c2ccc(-c3ccsc3)cc2)C1c1cccc[n+]1[O-] (centres unmarked) [Compound I-104] | 424 nM
39 | CNc1cc(-c2ccc(N3C(=O)c4[nH]nc(C(C)(C)C)c4C3c3ccccc3OC)cc2)on1 (centres unmarked) [II-146] | 416 nM
40 | CC(C)(C)c1n[nH]c2c1C(c1ccccc1OCCO)N(c1ccc(-c3ccoc3)cc1)C2=O (centres unmarked) [II-124] | 8 nM
41 | CC(C)(C)c1n[nH]c2c1C(c1cccnc1OCCO)N(c1ccc(-c3ccon3)cc1)C2=O (centres unmarked) [II-036] | 231 nM
42 | Cc1nc(-c2ccc(N3C(=O)C(O)=C(C(=O)CC(C)C)C3c3ccccc3OCCCO)cc2)no1 (centres unmarked) [Compound I-445] | 152 nM
43 | COc1ccc(C(=O)C2=C(O)C(=O)N(c3ccc(-c4cccnc4)cc3)C2c2ccccc2OC)cc1 (centres unmarked) [Compound I-034] | 700 nM
44 | CC(C)C(=O)C1=C(O)C(=O)N(c2ccc(-c3ccsc3)cc2)C1c1ccccc1OCC1OCCO1 (centres unmarked) [Compound I-551] | 5 nM
45 | COc1ncccc1C1c2c(C(C)(C)C)n[nH]c2C(=O)N1c1ccc(-c2noc(C)n2)cc1 (centres unmarked) [II-194] | 392 nM
46 | COCCN(C)C(=O)c1ccccc1C1C(C(=O)CC(C)C)=C(O)C(=O)N1c1ccc(-c2ccc(C)o2)cc1 (centres unmarked) [Compound I-496] | 55 nM
47 | CC(C)C(=O)C1=C(O)C(=O)N(c2ccc(-c3ccsc3)cc2)C1c1ccccc1N1CCOCC1 (centres unmarked) [Compound I-443] | 6 nM
48 | COCCOc1ncccc1C1C(C(=O)C(C)(C)C)=C(O)C(=O)N1c1ccc(-c2cccs2)cc1 (centres unmarked) [Compound I-149] | 15 nM
49 | CC(C)(C)c1n[nH]c2c1C(c1ccccc1OCCO)N(c1ccc(-c3cccs3)cc1)C2=O (centres unmarked) [II-012] | 4 nM
50 | COCCOc1ccccc1C1C(C(=O)C(C)C)=C(O)C(=O)N1c1ccc(-c2ccco2)cc1 (centres unmarked) [Compound I-231] | 23 nM
51 | COc1ccc(-c2n[nH]c3c2C(c2ccccc2OCCO)N(c2nc4cc(OC)ccc4s2)C3=O)cc1 (centres unmarked) [II-117] | 348 nM
52 | CCCCC(CCCC)C1C(C(=O)c2ccc(CO)cc2)=C(O)C(=O)N1c1ccc(-c2ccon2)cc1 (centres unmarked) [Compound I-007] | 100 nM
53 | CC(C)CC(=O)C1=C(O)C(=O)N(c2ccc(-c3ccsc3)cc2)C1c1ccccc1OC(F)(F)F (centres unmarked) [Compound I-330] | 70 nM
